According to patent US8680242B2, “Plasminogen receptor, polypeptides and antibodies thereof” (priority 2008, dated 2014):
Ends that are not written are not given here.

Experiments:
[1] = tested on: plasminogen binding to the Plg-RKT polypeptide, CEQSKLFSDK (SEQ ID NO: 33); experiment: Inhibition of biotinylated plasminogen binding to immobilized Plg-RKT C-terminal peptide (streptavidin-HRP); set-up: species or system mouse
Description: (§1) Mab36Al2 or control rat IgG2A was incubated with the Plg-RKT polypeptide, CEQSKLFSDK (SEQ ID NO: 33), coupled to BSA and immobilized on microtiter wells. In these assays, 200 nM biotinylated plasminogen was then added and plasminogen binding was detected with streptavidin-HRP.
(§2) We tested the ability of a peptide, CEQSRFFIDK (SEQ ID NO: 34), corresponding to the C terminus of human Plg-RKT (residues 139-147), to inhibit the binding of biotinylated-plasminogen to the C-terminal peptide CEQSKLFSDK (SEQ ID NO: 33), of mouse Plg-RKT when CEQSKLFSDK (SEQ ID NO: 33), was coupled to BSA and immobilized to microtiter plates as described above. […] Thus, the interaction of plasminogen with the C-terminal peptide of Plg-RKT requires the presence of a C-terminal lysine residue.
(§3) In other assays to define the ligand recognition specificity of Plg-RKT for plasminogen. the Plg-RKT polypeptide, CEQSKLFSDK (SEQ ID NO: 33), was coupled to microtiter wells. Plasminogen was directly biotinylated and then incubated with the immobilized peptide and detected with streptavidin-HRP, as above. […] (K1-3 is comprised of the plasminogen amino acid sequences, Tyr^79-Val^337 or Tyr^79-Val^353. K4 is contained within the plasminogen amino acid sequences, Val^354-Ala^439. K5-PD is contained within the plasminogen amino acid sequences, Val^442-Asn^790 and contains kringle 5 as well as the latent protease domain.)

Plasminogen = target: T1, Plasminogen (Homo sapiens, UniProt P00747); experiment: Plasminogen binding to BSA-coupled C-terminal Plg-RKT peptide coated on microtiter wells, detected with anti-plasminogen MAb
T1 construct: host or cells: peptide is synthetic
T1 sequence (P00747 20-810 limits assumed): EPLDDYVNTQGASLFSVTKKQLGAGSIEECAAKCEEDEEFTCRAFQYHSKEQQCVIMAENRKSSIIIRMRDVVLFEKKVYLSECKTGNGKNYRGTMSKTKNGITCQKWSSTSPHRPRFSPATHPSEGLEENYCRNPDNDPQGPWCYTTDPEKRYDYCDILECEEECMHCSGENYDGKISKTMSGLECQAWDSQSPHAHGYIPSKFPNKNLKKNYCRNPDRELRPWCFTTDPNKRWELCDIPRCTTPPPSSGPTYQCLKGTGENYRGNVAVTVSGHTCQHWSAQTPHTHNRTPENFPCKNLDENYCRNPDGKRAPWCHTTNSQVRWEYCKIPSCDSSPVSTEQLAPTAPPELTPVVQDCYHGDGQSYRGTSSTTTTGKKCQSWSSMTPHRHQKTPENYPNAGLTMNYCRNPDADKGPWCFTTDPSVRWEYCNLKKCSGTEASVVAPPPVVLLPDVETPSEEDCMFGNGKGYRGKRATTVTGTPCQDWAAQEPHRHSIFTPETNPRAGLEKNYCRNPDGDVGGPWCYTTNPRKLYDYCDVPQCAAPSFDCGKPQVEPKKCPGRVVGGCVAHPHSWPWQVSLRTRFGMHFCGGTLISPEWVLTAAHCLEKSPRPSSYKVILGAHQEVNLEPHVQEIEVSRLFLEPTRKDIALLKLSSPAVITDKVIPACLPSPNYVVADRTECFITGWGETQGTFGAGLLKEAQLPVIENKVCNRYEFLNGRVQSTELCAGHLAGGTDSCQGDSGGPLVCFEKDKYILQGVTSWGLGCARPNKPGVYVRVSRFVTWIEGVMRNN
Text: Our isolation method was consistent with exposure of the carboxyl-terminus of Plg-RKT (with its carboxyl-terminal lysine) on the cell surface and also with the ability of the carboxyl-terminal domain to bind to plasminogen. For verification, we tested whether a synthetic peptide, corresponding to the C-terminus of Plg-RKT could bind plasminogen. The peptide, CEQSKLFSDK (SEQ ID NO: 33) corresponding to the ten C-terminal amino acids of Plg-RKT with cysteine substituted for R138) was coupled to bovine serum albumin (BSA) and then coated onto wells of microtiter plates at 10 μg/ml. The wells were blocked with 5% BSA. Plasminogen (0.2 μM) was incubated with the wells, followed by our anti-plasminogen MAb^36 and detection with HRP-conjugated goat anti-mouse IgG (Biosource, Camarillo, Calif.). Plasminogen bound to the peptide in a concentration dependent manner with 50% maximal binding achieved at a plasminogen concentration of ˜10 nM. The binding was specific because it was blocked in the presence of epsilon-aminocaproic acid (EACA), consistent with the ability of EACA to inhibit plasminogen binding to differentiated Hoxa9-ER4 cells. […] In controls for the detection method, O.D.490 values obtained using an isotype control antibody or in the absence of added plasminogen were <5% of the values for plasminogen binding to the BSA-coupled peptide detected with anti-plasminogen MAb.

biotinylated plasminogen = target: T2, biotinylated plasminogen (Homo sapiens, UniProt P00747); experiment: Direct binding of biotinylated plasminogen to immobilized peptide (streptavidin-HRP)
T2 construct: host or cells: peptide is synthetic
T2 sequence (P00747 20-810 limits assumed): as above
Description: as §1, §3

[2] = target: T3, plasminogen binding to the Plg-RKT polypeptide, CEQSKLFSDK (SEQ ID NO: 33) (Mus musculus, UniProt Q9D3P8, R138C); experiment: Inhibition of biotinylated plasminogen binding to immobilized Plg-RKT C-terminal peptide (streptavidin-HRP); settings: plasminogen domains from elastase digestion
T3 construct: host or cells: peptide is synthetic
Description: as §1, §2, §3

For “CEQSRFFIDA [mutant peptide with the C-terminal K replaced with A, reference compound]”, the “inhibition of plasminogen binding to immobilized CEQSKLFSDK (in words)” value (“inhibition of plasminogen binding” below) [1] was “not affected”.

For CEQSRFFIDK [CEQSRFFIDK], the “inhibition of plasminogen binding” value [1] was “inhibited in a dose-dependent manner”.

For “CEQSRFFIDK [peptide with R142 replaced with K, human C-terminal peptide with R142 replaced with K]”, the “inhibition of plasminogen binding” value [1] was “more effective competitor”.

For “KDSFLKSQEC (listed as Mus musculus) [reverse peptide control, reference compound]”, the “nonspecific plasminogen binding, relative to binding to CEQSKLFSDK” value (Plasminogen; control peptide on wells) was under 10% and the “biotinylated-Plg binding to the immobilized peptide” value (biotinylated plasminogen) was “no biotinylated-Plg binding”.

In the case of CEQSKLFSDK [CEQSKLFSDK], the “biotinylated-Plg binding to the immobilized peptide” value (biotinylated plasminogen) is reported as “concentration-dependent manner”.

`NCCCCCC(=O)O` [epsilon-aminocaproic acid] was tested, and the “effect on plasminogen binding to the peptide CEQSKLFSDK” value (Plasminogen; in the presence of EACA) was “blocked”.

In the case of “Plg: plasminogen, precursor of plasmin with five kringle domains and a serine protease domain”, the “order of effectiveness in inhibiting plasminogen interaction with immobilized CEQSKLFSDK” value [2] is reported as “Plg>K1-3>K5>K4”.

B1: K1-3: plasminogen fragment Tyr79-Val337 or Tyr79-Val353, obtained by elastase digestion (protein)
chain: YLSECKTGNGKNYRGTMSKTKNGITCQKWSSTSPHRPRFSPATHPSEGLEENYCRNPDNDPQGPWCYTTDPEKRYDYCDILECEEECMHCSGENYDGKISKTMSGLECQAWDSQSPHAHGYIPSKFPNKNLKKNYCRNPDRELRPWCFTTDPNKRWELCDIPRCTTPPPSSGPTYQCLKGTGENYRGNVAVTVSGHTCQHWSAQTPHTHNRTPENFPCKNLDENYCRNPDGKRAPWCHTTNSQVRWEYCKIPSCDSSPV
In the case of B1, the “order of effectiveness in inhibiting plasminogen interaction with immobilized CEQSKLFSDK” value [2] is reported as “Plg>K1-3>K5>K4”.

B2: K5: plasminogen fragment within Val442-Asn790, kringle 5 and the latent protease domain (protein)
chain: VVAPPPVVLLPDVETPSEEDCMFGNGKGYRGKRATTVTGTPCQDWAAQEPHRHSIFTPETNPRAGLEKNYCRNPDGDVGGPWCYTTNPRKLYDYCDVPQCAAPSFDCGKPQVEPKKCPGRVVGGCVAHPHSWPWQVSLRTRFGMHFCGGTLISPEWVLTAAHCLEKSPRPSSYKVILGAHQEVNLEPHVQEIEVSRLFLEPTRKDIALLKLSSPAVITDKVIPACLPSPNYVVADRTECFITGWGETQGTFGAGLLKEAQLPVIENKVCNRYEFLNGRVQSTELCAGHLAGGTDSCQGDSGGPLVCFEKDKYILQGVTSWGLGCARPNKPGVYVRVSRFVTWIEGVMRN
For B2, the “order of effectiveness in inhibiting plasminogen interaction with immobilized CEQSKLFSDK” value [2] was “Plg>K1-3>K5>K4”.
